Our source for the IC50 values is patent publication US12286424B2, “Small molecule inhibitors of galectin-3” (BRISTOL-MYERS SQUIBB COMPANY, priority 2020, dated 2025).

T1 sequence (P17931 whole entry): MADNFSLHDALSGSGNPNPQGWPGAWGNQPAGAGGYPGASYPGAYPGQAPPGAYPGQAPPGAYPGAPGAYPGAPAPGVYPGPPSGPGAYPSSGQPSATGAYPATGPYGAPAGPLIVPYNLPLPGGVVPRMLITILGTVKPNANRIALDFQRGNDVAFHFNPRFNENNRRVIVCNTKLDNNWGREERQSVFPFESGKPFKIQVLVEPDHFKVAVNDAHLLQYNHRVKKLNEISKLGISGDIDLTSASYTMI

One assay has as its target T1, hGalectin-3 (Homo sapiens, UniProt P17931).
T1 construct: made in house
Briefly: Gal-3 ELISA assay (hGalectin-3 neutralization binding to asialofetuin). The settings on record: Table 1; read-out: hGal-3 IC50. On the technique in general: An ELISA detects its analyte on a solid surface through an enzyme-linked reagent.
For `Cn1ccc2cc(N3CCN(C(=O)[C@@H]4O[C@H](CO)[C@H](O)[C@H](n5cc(-c6cccc(F)c6)nn5)[C@H]4O)CC3)ccc21` [Example 6], the IC50 (as a rule, the concentration that gives 50% inhibition) turned out to be 0.42 µM.

Still in this assay, the particulars now being: Table 2; read-out: hGal-3 IC50.
As for `CO[C@@H]1[C@@H](n2cc(-c3cccc(F)c3)nn2)[C@@H](O)[C@@H](CO)O[C@H]1C(=O)N1CCN(c2ccc3c(ccn3C)c2)CC1` [Example 14], the IC50 worked out at 0.41 µM.

In the case of `CO[C@@H]1[C@@H](n2cc(-c3cccc(F)c3)nn2)[C@@H](O)[C@@H](CO)O[C@H]1C(=O)N1C[C@H]2C[C@@H]1CN2c1ccc2c(c1)OCO2` [Example 17], the concentration for half-maximal inhibition (IC50) was 0.311 µM.

Still in this assay, the particulars now being: Table 3; read-out: hGal-3 IC50.
On to `O=C([C@@H]1O[C@H](CO)[C@H](O)[C@H](n2cc(-c3cccc(F)c3)nn2)[C@H]1O)N1C[C@@H]2C[C@H]1CN2c1ccc2c(c1)OCO2` [Example 20], for which the IC50 is 0.249 µM. For `COc1ccc(OC)c(N2CC3CC2CN3C(=O)C2OC(CO)C(O)C(n3cc(-c4cccc(F)c4)nn3)C2O)c1` (centres unmarked) [Example 21], the IC50 worked out at 0.962 µM.

Staying with this assay, now noted: biotin-tagged hGalectin-3 15 nM, ASF-coated plate; read-out: hGal3 IC50.
`COc1ccc(N2CCN(C(=O)[C@@H]3O[C@H](CO)[C@H](O)[C@H](n4cc(-c5cccc(F)c5)nn4)[C@H]3OC)CC2)cc1` [Example 11, ((2R, 3R, 4S, 5R, 6R)-4-(4-(3-fluorophenyl)-1H-1,2,3-triazol-1-yl)-5-hydroxy-6-(hydroxymethyl)-3-methoxytetrahydro-2H-pyran-2-yl)(4-(4-methoxyphenyl)piperazin-1-yl) methanone]: the IC50 is 0.3 µM.

As to `O=C([C@@H]1O[C@H](CO)[C@H](O)[C@H](n2cc(-c3cccc(F)c3)nn2)[C@H]1O)N1CCN(c2ccc(O)cc2)C(CO)C1` (single isomer, unassigned) [Example 35b], the half-maximal inhibitory concentration (IC50) came to 0.14 µM. Take `COC(=O)Nc1ccc(N2C[C@@H]3C[C@H]2CN3C(=O)[C@@H]2O[C@H](CO)[C@H](O)[C@H](n3cc(-c4cccc(F)c4)nn3)[C@H]2O)cc1` [Example 23, methyl (4-((1S,4S)-5-((2R,3R,4S,5R,6R)-4-(4-(3-fluorophenyl)-1H-1,2,3-triazol-1-yl)-3,5-dihydroxy-6-(hydroxymethyl)tetrahydro-2H-pyran-2-carbonyl)-2,5-diazabicyclo[2.2.1]heptan-2-yl)phenyl)carbamate]: the IC50 stood at 0.59 µM.

As to `O=C([C@@H]1O[C@H](CO)[C@H](O)[C@H](n2cc(-c3cccc(F)c3)nn2)[C@H]1O)N1CCN(c2ccc(O)cc2)CC1` [Example 1, ((2R, 3R, 4S, 5R, 6R)-4-(4-(3-fluorophenyl)-1H-1,2,3-triazol-1-yl)-3,5-dihydroxy-6-(hydroxymethyl)tetrahydro-2H-pyran-2-yl)(4-(4-hydroxyphenyl)piperazin-1-yl) methanone], the concentration for half-maximal inhibition (IC50) is 0.35 µM. Same read-out and setting: for `O=C([C@@H]1O[C@H](CO)[C@H](O)[C@H](n2cc(-c3cccc(F)c3)nn2)[C@H]1O)N1CCN(c2ccc(O)cc2)CC1CO` (single isomer, unassigned) [Example 34b] the value was 0.45 µM. With `O=C(C[C@@H]1O[C@H](CO)[C@H](O)[C@H](n2cc(-c3cccc(F)c3)nn2)[C@H]1O)N1C[C@@H]2C[C@H]1CN2c1ccc2c(c1)OCO2` [Example 28], the concentration for half-maximal inhibition (IC50) stood at 0.58 µM. Regarding `CO[C@@H]1[C@@H](n2cc(-c3cccc(F)c3)nn2)[C@@H](O)[C@@H](CO)O[C@H]1C(=O)N1CCN(c2ccc(O)cn2)CC1` [Example 12, ((2R, 3R, 4S, 5R, 6R)-4-(4-(3-fluorophenyl)-1H-1,2,3-triazol-1-yl)-5-hydroxy-6-(hydroxymethyl)-3-methoxytetrahydro-2H-pyran-2-yl)(4-(5-hydroxypyridin-2-yl)piperazin-1-yl) methanone], the IC50 turned out to be 0.47 µM. Still for that read-out and setting: for `CS(=O)(=O)Nc1ccc(N2CCN(C(=O)[C@@H]3O[C@H](CO)[C@H](O)[C@H](n4cc(-c5cccc(F)c5)nn4)[C@H]3O)CC2)nc1` [Example 8, N-(6-(4-((2R,3R,4S,5R,6R)-4-(4-(3-fluorophenyl)-1H-1,2,3-triazol-1-yl)-3,5-dihydroxy-6-(hydroxymethyl)tetrahydro-2H-pyran-2-carbonyl)piperazin-1-yl)pyridin-3-yl)methanesulfonamide] the value was 0.76 µM. Turning to `Cc1ccc(N2C[C@H]3CN(C(=O)[C@@H]4O[C@H](CO)[C@H](O)[C@H](n5cc(-c6cccc(F)c6)nn5)[C@H]4O)C[C@H]3C2)cc1` [Example 38, ((2R,3R,4S,5R,6R)-4-(4-(3-fluorophenyl)-1H-1,2,3-triazol-1-yl)-3,5-dihydroxy-6-(hydroxymethyl)tetrahydro-2H-pyran-2-yl)((3aR,6aS)-5-(p-tolyl)hexahydropyrrolo[3,4-c]pyrrol-2(1H)-yl)methanone], the IC50 worked out at 0.4 µM. Same read-out and setting: the figure for `OCC1CN(c2ccc(O)cc2)CCN1C[C@@H]1O[C@H](CO)[C@H](O)[C@H](n2cc(-c3cccc(F)c3)nn2)[C@H]1O` (single isomer, unassigned) [Example 39a] is 0.31 µM; for `O=C(Nc1ccc(O)cc1)N1CCN(C(=O)[C@@H]2O[C@H](CO)[C@H](O)[C@H](n3cc(-c4cccc(F)c4)nn3)[C@H]2O)CC1` [Example 18, 4-((2R,3R,4S,5R,6R)-4-(4-(3-fluorophenyl)-1H-1,2,3-triazol-1-yl)-3,5-dihydroxy-6-(hydroxymethyl)tetrahydro-2H-pyran-2-carbonyl)-N-(4-hydroxyphenyl)piperazine-1-carboxamide] it is 0.25 µM. Take `C[C@@H]1CN(c2ccc(O)cc2)[C@@H](C)CN1C(=O)[C@@H]1O[C@H](CO)[C@H](O)[C@H](n2cc(-c3cccc(F)c3)nn2)[C@H]1O` (single isomer, unassigned) [Example 37b]: the IC50 stood at 0.31 µM.

For the molecule `O=C([C@@H]1O[C@H](CO)[C@H](O)[C@H](n2cc(-c3cccc(F)c3)nn2)[C@H]1O)N1CCN(c2ccc(O)cc2)C(CO)C1` (single isomer, unassigned) [Example 35a], the half-maximal inhibitory concentration (IC50) was found to be 1.1 µM.

As for `OCC1CN(C[C@@H]2O[C@H](CO)[C@H](O)[C@H](n3cc(-c4cccc(F)c4)nn3)[C@H]2O)CCN1c1ccc(O)cc1` (single isomer, unassigned) [Example 40b], the half-maximal inhibitory concentration (IC50) was determined as 1.6 µM.

As for `OCC1CN(c2ccc(O)cc2)CCN1C[C@@H]1O[C@H](CO)[C@H](O)[C@H](n2cc(-c3cccc(F)c3)nn2)[C@H]1O` (single isomer, unassigned) [Example 39b], the half-maximal inhibitory concentration (IC50) was 0.39 µM. Same read-out and setting: the figure for `COc1ccc(N2C[C@@H]3C[C@H]2CN3C[C@@H]2O[C@H](CO)[C@H](O)[C@H](n3cc(-c4cccc(F)c4)nn3)[C@H]2O)cc1` [Example 29, (2R,3R,4R,5R,6S)-4-(4-(3-fluorophenyl)-1H-1,2,3-triazol-1-yl)-2-(hydroxymethyl)-6-(((1S,4S)-5-(4-methoxyphenyl)-2,5-diazabicyclo[2.2.1]heptan-2-yl)methyl)tetrahydro-2H-pyran-3,5-diol] is 0.25 µM.

In the case of `CS(=O)(=O)Nc1ccc(N2C[C@@H]3C[C@H]2CN3C(=O)[C@@H]2O[C@H](CO)[C@H](O)[C@H](n3cc(-c4cccc(F)c4)nn3)[C@H]2O)cc1` [Example 24, N-(4-((1S,4S)-5-((2R,3R,4S,5R,6R)-4-(4-(3-fluorophenyl)-1H-1,2,3-triazol-1-yl)-3,5-dihydroxy-6-(hydroxymethyl)tetrahydro-2H-pyran-2-carbonyl)-2,5-diazabicyclo[2.2.1]heptan-2-yl)phenyl)methanesulfonamide], the half-maximal inhibitory concentration (IC50) was 0.68 µM.

In the case of `O=C([C@@H]1O[C@H](CO)[C@H](O)[C@H](n2cc(-c3cccc(F)c3)nn2)[C@H]1O)N1CCN(c2ccc(O)cc2)CC1CO` (single isomer, unassigned) [Example 34a], the IC50 amounted to 1.3 µM.
